Experimental findings from patent publication US20130005699A1, “METHODS AND PRODUCTS FOR TREATMENT OF DISEASES” (DMI ACQUISITION CORP., priority 2009, published 2013) are described below.

A value given as a limit tells only on which side of the number the result lay.

Assay [1] deals with RhoA. In words: Rho activation assay (GLISA) in retinal endothelial cells. Format: cell-based, human. The procedure:
This experiment was performed using a commercially-available Rho activation assay (GLISA) purchased from Cytoskeleton, Denver, Colo., following the manufacturer's protocol. […] Test compounds diluted in HBSS were placed in the incubator to equilibrate before addition to the cells. Then, 150 μl of each test compound was added to the appropriate culture wells, and the plates were incubated in the incubator for an additional 15 minutes. Then, thrombin was added to appropriate wells. After 1 minute, the cells were washed one time with 1.5 ml phosphate buffered saline and were then lysed with 100 μl GLISA lysis buffer supplemented with protease inhibitors. The extracts were scraped, transferred to microcentrifuge tubes and transferred to ice to preserve the active form of RhoA. All extracts were then cleared of debris by spinning at 10,000 rpms for 2 minutes at 4° C. The supernatants were transferred to new tubes and placed back on ice. Aliquots of each extract were removed for the GLISA assay and for protein determinations. All protein concentrations were within 10%, and the extracts were used at the achieved concentrations (equates to 15 μg total protein per well). The GLISA assay was performed using the reagents supplied in the kit.

In assay [2] the test system is human retinal endothelial cells. As to the kind of experiment: TER of retinal endothelial cell monolayers with danazol, steroid receptor antagonists and hormones (Example 10). The conditions noted are these: for TER at 5 minutes: None 250.30; for TER at 60 minutes: None 251.00; for TER at 30 minutes: None 262.31; for TER at 24 Hours: None 287.09.
The test system is the same in assay [3]. In words: TER of retinal endothelial cell monolayers with danazol and steroid receptor antagonists (Example 6). The settings on record: for TER at 30 minutes: None 216.22; for TER at 120 minutes: None 234.23; for TER at 60 minutes: None 249.25; for TER at 24 Hours: None 312.31.
The subject of assay [4] is HUVECs. In words: HUVEC invasion (BioCoat Matrigel Invasion Chambers). Format: cell-based, human. The settings on record: 24 hours, 5% FCS; FCS raised 5674 FU±77 to 7143±516; concentration of LY294002 not specified (10 μM and 100 μM tested). On the procedure:
BioCoat Matrigel Invasion Chambers were purchased from BD Biosciences (San Jose, Calif.). Inserts were rehydrated at 37° C. with 500 μl HBSS for 2 hours prior to use in humidified incubator. Trypsinized HUVECs were washed twice with warm EGM-2 containing 0.1% FCS and added to the upper chamber of the invasion insert at 100,000 cells in a total volume of 250 μl. […]. Non-invasive cells were removed from the upper chamber with moistened cotton swabs and then the inserts were washed twice with HBSS. The inserts were then submerged in 10 μM calcein AM prepared in HBSS and incubated for 4 hours. Fluorescence was determined in a microplate reader at 485 nm excitation and 595 nm emission.
All data is presented as representative experiment done in triplicate. Differences between subsets were analyzed using student t-test in Microsoft Excel. P<0.05 was considered statistically significant.

Assay [5] relates to human retinal endothelial cells. As to the kind of experiment: ECIS resistance (Example 12), retinal cells.
For assay [6] the test system is unchanged. In words: Actin stress fiber formation (Example 11), retinal cells.
For assay [7], the system named is human renal glomerular microvascular endothelial cells. In words: Actin stress fiber formation (Example 11), glomerular cells.
Assay [8] concerns human retinal endothelial cells. In words: Actin stress fiber formation, rhodamine-phalloidin staining, TNFα (Example 7). The conditions noted are these: TNFα 50 ng/ml, 30 minutes.
The test system of assay [9] is VE-Cadherin. As to the kind of experiment: VE-cadherin phosphorylation (immunoprecipitation, Pro-Q diamond / SYPRO ruby densitometry). The conditions noted are these: VEGF 50 ng/ml. Format: cell-based, human. The procedure:
The plates were immediately treated to lyse the cells as follows. PBS and the lysis buffer (PBS containing 1% Triton X-100 supplemented with phosphatase inhibitor solutions 1 and 2 (Sigma), protease inhibitor (Sigma) and sodium orthovanadate at a final concentration of 2 mM) were cooled to 4° C. The cells were washed two times with 5 ml of the ice cold PBS and then lysed in 500 μl of the ice cold lysis buffer. The resulting protein extracts were transferred to 1.7 ml microcentrifuge tubes, and cell debris was removed by spinning at 4° C. at 10,000 rpm for 10 minutes. Then, 450 μl of the cleared solution was transferred to tubes containing 25 μl of Protein Dynabeads (Invitrogen) coated with 10 μl C19 anti-VE cadherin polyclonal antibody (Santa Cruz Biotechnology) (coating performed following manufacturer's protocol). The extracts and beads were then incubated overnight at 4° C. on an orbital shaker to capture VE cadherin from the extracts. The beads were then washed four times with ice cold lysis buffer. To release the protein from the beads, they were heated for 10 minutes at 75° C. in SDS loading dye containing 20% reducing dye (Invitrogen).
The released proteins were separated in 4-20% polyacrylamide gels (Invitrogen) at 120 volts for 1 hour. To determine phosphorylation and total protein in the gels, Pro-Q diamond (Invitrogen) and SYPRO ruby (Invitrogen) protein staining were sequentially performed following the manufacturer's protocol. The gels were photographed and densitometry performed using a Kodak imaging station.

Assay [10] deals with human retinal endothelial cells. In words: Actin stress fiber formation, rhodamine-phalloidin staining, VEGF (Example 8). Format: cell-based. The conditions noted are these: VEGF 25 ng/ml, 30 minutes. On the procedure:
. […] To counter-stain for nuclei, 100 μl of a 3 μM DAPI (4,6-diamidino-2-phenylindole, dilactate (Invitrogen)) solution was added to each well. After 5 minutes, the cells were washed two times with 100 μl PBS.

Setting [11] is: passage 12 cells, 1.0 μM, no thrombin, Untreated 0.455.
The mark [12] stands for this setting: passage 12 cells, 0.1 U/ml Thrombin + 1.0 μM compound.
[13] abbreviates: 10 nM hormone, alone or followed by 0.1 μM Danazol.
Where [14] appears, read: 0.1 μM of each additive, background subtracted, divided by 0.33 cm^2.
[15] abbreviates: passage 8 cells, 0.1 U/ml Thrombin + 10.0 μM compound.
The mark [16] stands for this setting: passage 12 cells, 0.1 U/ml Thrombin + 10.0 μM compound.
The mark [17] stands for this setting: 10.0 μM LY294002, alone or followed by 0.1 μM Danazol.
[18] abbreviates: S1P 1 μM alone, beginning at 15 minutes, strongest at 3 hours.
Where [19] appears, read: 15 minutes, ethanol control 1.00.

`C[C@@H]1C[C@H]2[C@@H]3CCC4=CC(=O)C=C[C@]4(C)[C@@]3(F)[C@@H](O)C[C@]2(C)[C@@]1(O)C(=O)CO` [Dexamethasone, dexamethasone]: in assay [1] (passage 12 cells, 1.0 μM), the “Percent Inhibition vs. Untreated Control” value was determined as 5.83%. Also, the “Mean OD (active RhoA)” value in assay [1] (setting [11]) came to 0.428. In assay [1] (setting [12]), the “Mean OD (active RhoA)” value is recorded as 0.826 and the “Percent Inhibition vs. Thrombin” value is 33.48%.

For the molecule `C[C@]12CC[C@@H]3c4ccc(O)cc4CC[C@H]3[C@@H]1CC[C@@H]2O` [Estradiol, estradiol], in [2] (setting [13]), the “TER at 5 minutes” value is on record as 246.50, the “TER at 60 minutes” value is given as 250.00, the “TER at 30 minutes” value came to 245.50 and the “TER at 24 Hours” value came to 328.33.

With `C[C@]12CC[C@@H]3c4ccc(O)cc4C[C@@H](CCCCCCCCC[S+]([O-])CCCC(F)(F)C(F)(F)F)[C@H]3[C@@H]1CC[C@@H]2O` (some centres unmarked) [Fluvestrant, fluvestrant], in assay [2] (setting [14]), the “TER at 5 minutes” value is reported as 223.47, the “TER at 60 minutes” value worked out at 243.99, the “TER at 30 minutes” value is 251.50 and the “TER at 24 Hours” value is given as 279.28. Further, in assay [3] (setting [14]), the “TER at 30 minutes” value was found to be 228.23, the “TER at 120 minutes” value came to 258.26, the “TER at 60 minutes” value was 270.27 and the “TER at 24 Hours” value was 336.34.

For `CC(C)(O)C(=O)Nc1ccc([N+](=O)[O-])c(C(F)(F)F)c1` [Hydroxyflutamide, hydroxyflutamide], in assay [2] (setting [14]), the “TER at 5 minutes” value was 190.44, the “TER at 60 minutes” value was determined as 215.97, the “TER at 30 minutes” value amounted to 207.46 and the “TER at 24 Hours” value is 267.27. For the same molecule, in assay [3] (setting [14]), the “TER at 30 minutes” value came to 177.18, the “TER at 120 minutes” value was 201.20, the “TER at 60 minutes” value is listed as 186.19 and the “TER at 24 Hours” value is on record as 297.30.

For the molecule `O=c1cc(N2CCOCC2)oc2c(-c3ccccc3)cccc12` [LY294002], the “fluorescence of invaded cells” value in [4] stood at 5814±153 FU. Besides, in assay [1] (passage 8 cells, 10.0 μM), the “Percent Inhibition vs. Untreated Control” value turned out to be 45.32%. In addition, the “Mean OD (active RhoA)” value in [1] (passage 8 cells, 10.0 μM, no thrombin, Untreated 0.102) was 0.056. Besides, in assay [1] (setting [15]), the “Mean OD (active RhoA)” value is listed as 0.433 and the “Percent Inhibition vs. Thrombin” value came to 27.86%. The “Percent Inhibition vs. Untreated Control” value in assay [1] (passage 12 cells, 10.0 μM) is listed as 18.70%. Also, in assay [1] (passage 12 cells, 10.0 μM, no thrombin, Untreated 0.455), the “Mean OD (active RhoA)” value came to 0.370. Besides, in [1] (setting [16]), the “Mean OD (active RhoA)” value was 0.685 and the “Percent Inhibition vs. Thrombin” value is listed as 58.73%. For the same molecule, in [3] (setting [17]), the “TER at 30 minutes” value is listed as 297.30, the “TER at 120 minutes” value was found to be 276.28, the “TER at 60 minutes” value came out at 354.35 and the “TER at 24 Hours” value is given as 345.35.

Take `CCCCCCCCCCCCC/C=C/[C@@H](O)[C@@H](N)COP(=O)(O)O` [S1P, sphingosine-1 phosphate]: the “persistence of increased ECIS” value in assay [5] (1 μM of each compound, monitored for 90 hours) is on record as “about 3 hours”. Also, in assay [5] (S1P 1 μM alone), the “start of increase of ECIS compared to untreated cells, after treatment” value was no more than 15 min. Further, the F-actin staining pattern entry in assay [6] (setting [18]) and in assay [7] (setting [18]) was “showed actin cortical rings” in each case.

For the molecule `COc1cc2ncnc(Nc3ccc(Oc4ccccc4)cc3)c2cc1OC` [Src-1 Inhibitor], the “Percent Inhibition vs. Untreated Control” value in assay [1] (passage 12 cells, 1.0 μM) is given as 23.21%. The “Mean OD (active RhoA)” value in [1] (setting [11]) is recorded as 0.349. Also, in assay [1] (setting [12]), the “Mean OD (active RhoA)” value is reported as 0.534 and the “Percent Inhibition vs. Thrombin” value was determined as 85.85%.

As for `C[C@]12CC[C@H]3[C@@H](CCC4=CC(=O)CC[C@@]43C)[C@@H]1CC[C@@H]2O` [Testosterone, testosterone], in [2] (setting [13]), the “TER at 5 minutes” value is 257.51, the “TER at 60 minutes” value worked out at 225.98, the “TER at 30 minutes” value is listed as 240.49 and the “TER at 24 Hours” value came to 267.27.

Turning to TNFα, the F-actin staining pattern entry is reported as “stress fibers were seen at all times” in [6] (TNFα 1 ng/ml alone), “stress fibers were seen at all times” in [7] (TNFα 1 ng/ml alone) and “strong stress fiber development with intensely staining focal points” in [8].

For Thrombin, the “Mean OD (active RhoA)” value is reported as 0.561 in [1] (passage 8 cells, 0.1 U/ml Thrombin alone, Untreated 0.102) and 1.013 in [1] (passage 12 cells, 0.1 U/ml Thrombin alone, Untreated 0.455).

On to VEGF, for which the “Ratio phosphorylated: total protein” value in assay [9] (15 minutes, ethanol control 0.215) is reported as 0.481. In addition, in [9] (setting [19]), the “Relative intensity - ProQ results (phosphorylated protein)” value was 1.89 and the “Relative intensity - SYPRO results (total protein)” value is 0.84. Also, the “fold increase of ratio phosphorylated: total protein” value in assay [9] (versus ethanol control) is on record as “(2.24 fold”. The F-actin staining pattern entry in [10] is recorded as “strong stress fiber development”.
